Source: patent publication US11434490B2, “Fluorogen-binding RNA aptamers” (CENTRE NATIONAL DE LA RECHERCHE SCIENTIFIQUE, priority 2017, dated 2022)

Columns and labels:
[1] = Fluorescence enhancement of TO1-PA; format: biochemical; conditions: ligand TO1-PA
Method: (§1) The bandwidth for all measurements was 1.5 nm for all experiments. Measurements were performed in a 0.2 cm path length cuvette in a background of 20 mM MOPS pH 7.0, 150 mM KCl, 10 μM EDTA. Fluorescence readings were taken in the absence of RNA at a ligand concentration of 0.82 μM. A concentrated, annealed stock of RNA was then added to the cuvette resulting in a final concentration of 2 μM RNA and allowed to equilibrate for 1 minute prior to taking an emission reading. Fluorescence enhancement was determined by dividing the fluorescence signal of ligand in the presence of RNA by the fluorescence signal in the absence of RNA corrected for the background of the instrument.

[2] = Fluorescence titration, binding affinity for TO1-Biotin; conditions: for Kd: ligand TO1-B (TO1-Biotin)
Description: FIG. 2|RNA Mango I, II, III and IV core sequences and their properties. (a) Color coded alignment of RNA Mango I, II, III and IV. G residues in yellow are protected from DMS cleavage (data from panel d) when folded in the presence of fluorophore. Quadruplex stacks and their associated propeller sequences are numbered 1 through 4. The GAAA isolation motif of Mango I, together with two adenines essential for binding, are shown in green and red respectively. Purple shading represents a flanking stem region common for all four Mango aptamers. Schematic: A tertiary structure schematic of Mango I, showing tier 1, 2 and 3 of its quadruplex structure (T1, T2 and T3) and color-coded as in (a). […] Bottom: Top view of the Mango I core (PBD ID: 5V3F), showing the T3 tier of the quadruplex and relevant propeller residues, color coding matches the schematic and panel a. […] KD values are shown next to each titration. (c) Same as for panel b but using 20 nM TO3-Biotin. Data for panels b and c have been normalized such that Mango I has a maximum fluorescence of 1. Error bars are standard deviation of three replicates. (d) DMS chemical protection patterns for the four Mango aptamers. 3′ end-labelled RNA (terminal ^32pCp shown as a black asterisk) was subjected to DMS chemical modification followed by reduction by NaBH4 and aniline cleavage as described in the methods. […] Legend: T1—denatured T1 ladder; OH—partial alkaline hydrolysis ladder; (−) DMS—denatured reaction with ddH2O added in place of DMS; 80° C.
Fluorescence data was gathered using a Varian Cary Eclipse Spectrophotometer unless otherwise stated. […] Fluorescence was measured at the maximum excitation and emission wavelengths of each complex (FIG. 13).
Where F([RNA]) is the fluorescence as a function of RNA concentration [RNA], Fmax is the maximal fluorescence of the bound complex and Funbound the fluorescence of the unbound fluorophore. When the fluorescence of Funbound was undetectable, it was set to zero.
Fluorescence readings were recorded using a Varian Cary Eclipse Spectrophotometer set to measure at the maximum excitation and emission wavelengths of the Mango II aptamer dye complex. Fluorescence titrations were performed in Mango selection buffer (WB: 140 mM KCl, 1 mM MgCl2, 10 mM NaH2PO4 pH 7.2, 0.05% Tween-20).

[3] = Fluorescence enhancement of TO1-PE; format: biochemical; conditions: ligand TO1-PE
Method: as §1

[4] = Fluorescence enhancement of TO1-Biotin; format: biochemical; conditions: ligand TO1-B; 0.82 μM ligand, 2 μM RNA
Method: as §1

[5] = Fluorescence lifetime measurements (TCSPC); format: physicochemical; conditions: for α1 (%): amplitude of τ1; for α2 (%): amplitude of τ2; for τi (ns), intensity-weighted average lifetime / τa (ns), amplitude-weighted average lifetime: calculated from the components; for τ1 (ns) / τ2 (ns): free TO1-Biotin or RNA bound to TO1-Biotin
Method: Fluorophore lifetime measurements were performed by using an in-house modified 2-photon fluorescence microscope based on a Zeiss LSM 510 unit capable of Time-Correlated Single-Photon Counting (TCSPC) measurements. A diode-pumped solid state laser (Millenia Prime, Spectra Physics, Newport, Calif.) was used to pump a Ti:Sapphire Tsunami oscillator (Model 3960C, Spectra Physics, Newport, Calif.), operating in femtosecond mode, at a repetition rate of 80 MHz, and tunable in the near infrared region. The output beam of the Ti:Sapphire laser was directed into an acousto-opto modulator (MT110/B50/A1.5 IR/S, AA Optoelectronic, France), controlled through the Zeiss LSM electronics and software, to attenuate the power before steering it into the LSM unit. The beam was reflected onto a 700/488 dichroic mirror and directed into the back aperture of a Plan Apochromat 63×, NA 1.4, oil immersion objective, and expanded to fill the back pupil. The fluorescence from the sample was collected from the same objective, intercepted by a 733LP dichroic mirror, sent toward the back port of the microscope, filtered through an ET700SP-2P filter (Chroma Technologies, Bellows Falls, Vt.) to remove residual scattering from the laser, and further passed through a 540/50 nm bandpass filter (Semrock, Rochester, N.Y.). The fluorescence is finally focused onto the photocathode of a H7422P-40 GaAsP photomultiplier detector (Hamamatsu, Japan). The large NA of the objective contributes to a certain degree of depolarization of the incoming excitation beam, as well as of the detected fluorescence. According to Fisz (J. Chem. Phys. A, 2007 and 2009), this would allow one to omit an analyzer (polarizer) in front of our detector, because magic angle conditions are achieved by using a 45° angle detection (i.e. unpolarized) configuration. The signal from the detector and the synchronization signal from the laser are directed into an SPC150 photon counting card (Becker & Hickl, Germany), controlled by the SPCM64 proprietary software from the manufacturer (Becker & Hickl, Germany). The data were collected with a 12.5 ns time window in TCSPC histogramming mode with 1024 channels, with a width of 12.2 ps each.
For the experiments the laser was tuned at 780 nm, and the power adjusted to 18 mW before the objective lens. RNA samples were diluted to a concentration of ˜3-5 μM in buffer. TO-1B was measured at a concentration of 50 μM due to low fluorescence signal of the compound, compared to the RNA-bound version. An 80 μl droplet was deposited onto a #1.5 coverslip, previously treated with BSA to avoid nonspecific binding of RNA to the glass, and covered to avoid evaporation. The excitation was focused ˜5 μm above the upper surface of the coverslip to reduce scatter and to avoid collecting signal from molecules immobilized on the glass surface. The beam was kept stationary by using the LSM controller to simply open the excitation shutter, and data were collected until the maximum count in the peak channel of the TCSPC histogram reached 10^4 photons. Experiments were repeated in triplicate. An instrument response function (IRF) was collected on every day of measurement by recording the second harmonic generation (SHG) signal from crushed urea crystals deposited onto a glass coverslip, in this case the bandpass filter before the detector was substituted with a 440 nm short pass filter to collect the 390 nm SHG. The data collected with the SPCM64 software were stored as *.sdt files for subsequent analysis.
Data were analyzed using the SPCImage software (Becker & Hickl, Germany). The fluorescence decay curves were fit using exponential functions of the form:
Where n is at most equal to 3 in our software. The data fitting routine uses a least-square algorithm where the exponential function is first reconvoluted with the measured IRF and then fit to the data. The shift of the IRF for each dataset, as well as a scatter contribution were included as free parameters during fitting. […]

Mango-II: minimal construct engineered from isolate R2-1; SEQ ID NO: 6902 GCGUACGAAGGAGAGGAGAGGAAGAGGAGAGUACGC (chemistry not given here)
FIE (fluorescence enhancement) [1]: 493 ± 5 | TO1-Biotin binding affinity (in words) [2]: subnanomolar affinity | Kd [2]: 1.1 ± 0.3 nM | FIE (fluorescence enhancement) [3]: 783 ± 13 | FIE (fluorescence enhancement) [4]: 1303 ± 20 | α1 (%) [5]: 45% | α2 (%) [5]: 55% | τi (ns), intensity-weighted average lifetime [5]: 2.05 ns | τa (ns), amplitude-weighted average lifetime ([5]; listed as Mango II wt): 1.51 ns | τa (ns), amplitude-weighted average lifetime ([5]; listed as wild-type Mango-II): 1.51 (±0.06) ns | τ1 (ns) ([5]; listed as Mango II wt): 0.52 ns | τ2 (ns) ([5]; listed as Mango II wt): 2.33 ns | τ1 (ns) ([5]; listed as wild-type Mango-II): 0.52 (±0.02) ns | τ2 (ns) ([5]; listed as wild-type Mango-II): 2.33 (±0.12) ns

B1: Mango II - A22U: Mango-II point mutant; SEQ ID NO: 6903 / 6905 (nucleic acid)
chain 1: GCGUACGAAGGAGAGGAGAGGUAGAGGAGAGUACGC
chain 2: GGCACGUACGAAGGAGAGGAGAGGUAGAGGAGAGUACGUGC
modifications: chemistry not given here
FIE (fluorescence enhancement) [1]: 275 ± 3 | Kd [2]: 0.9 ± 0.4 nM | FIE (fluorescence enhancement) [3]: 825 ± 14 | FIE (fluorescence enhancement) [4]: 1543 ± 24 | α1 (%) [5]: 45% | α2 (%) [5]: 55% | τa (ns), amplitude-weighted average lifetime [5]: 1.92 ns | τi (ns), intensity-weighted average lifetime [5]: 2.53 ns | τa (ns), amplitude-weighted average lifetime ([5]; listed as A22U mutant): 1.92 (±0.03) ns | τ1 (ns) [5]: 0.72 ns | τ2 (ns) [5]: 2.904 ns | τ1 (ns) ([5]; listed as A22U mutant): 0.72 (±0.01) ns | τ2 (ns) ([5]; listed as A22U mutant): 2.904 (±0.001) ns
